Reference: patent US20260285850A1, “SUBSTITUTED OXAZOLIDINONES AND IMIDAZOLINONES AS HERBICIDES” (FMC CORPORATION, priority 2023, published 2026)

Key:
Format in all cases: in vivo
[1] = tested on: barnyardgrass (Echinochloa crus-galli); experiment: Test A preemergence soil spray, visual injury rating 0-100; conditions: 1000 g ai/ha, 10 days, 0 = no effect, 100 = complete control
From the text: (§1) Seeds of plant species selected from barnyardgrass (Echinochloa crus-galli), blackgrass (Alopecurus myosuroides), corn (Zea mays), foxtail, giant (giant foxtail, Setaria faberi), green foxtail (Setaria viridis), goosegrass (Eleusine indica), kochia (Bassia scoparia), oat, wild (wild oat, Avena fatua), palmer (palmer amaranth, palmer pigweed, Amaranthus palmeri), ragweed (common ragweed, Ambrosia artemisiifolia), ryegrass, Italian (italian ryegrass, Lolium multiflorum), soybean (Glycine max) and wheat (Triticum aestivum) were planted into a blend of loam soil and sand and treated preemergence with a directed soil spray using test chemicals formulated in a non-phytotoxic solvent mixture which included a surfactant.
(§2) At the same time, plants selected from these crops and weed species and also galium (catchweed bedstraw, Galium aparine) and horseweed (Erigeron canadensis) were planted in pots containing the same blend of loam soil and sand and treated with postemergence applications of test chemicals formulated in the same manner. Plants ranged in height from 2 to 10 cm and were in the one- to two-leaf stage for the postemergence treatment. Treated plants and untreated controls were maintained in a greenhouse for 10 days, after which time all treated plants were compared to untreated controls and visually evaluated for injury. Plant response ratings, summarized in Table A, are based on a 0 to 100 scale where 0 is no effect and 100 is complete control. A dash (-) response means no test result.

[2] = tested on: green foxtail (Setaria viridis); experiment: as above; conditions: 1000 g ai/ha, 10 days, 0 = no effect, 100 = complete control
From the text: as §1, §2

kochia (Bassia scoparia) [3] = experiment: as above; conditions: 1000 g ai/ha, 10 days, 0 = no effect, 100 = complete control
From the text: as §1, §2

[4] = tested on: palmer (palmer amaranth, palmer pigweed, Amaranthus palmeri); experiment: as above; conditions: 1000 g ai/ha, 10 days, 0 = no effect, 100 = complete control
From the text: as §1, §2

[5] = tested on: ryegrass, Italian (italian ryegrass, Lolium multiflorum); experiment: as above; conditions: 1000 g ai/ha, 10 days, 0 = no effect, 100 = complete control
From the text: as §1, §2

[6] = tested on: barnyardgrass (Echinochloa crus-galli); experiment: Test A postemergence application, visual injury rating 0-100; conditions: Postemergence, 1000 g ai/ha, 0 to 100 scale, 10 days
From the text: as §1, §2

[7] = tested on: blackgrass (Alopecurus myosuroides); experiment: as above; conditions: Postemergence, 1000 g ai/ha, 0 to 100 scale, 10 days
From the text: as §1, §2

[8] = tested on: galium (catchweed bedstraw, Galium aparine); experiment: as above; conditions: Postemergence, 1000 g ai/ha, 0 to 100 scale, 10 days
From the text: as §1, §2

[9] = tested on: green foxtail (Setaria viridis); experiment: as above; conditions: Postemergence, 1000 g ai/ha, 0 to 100 scale, 10 days
From the text: as §1, §2

[10] = tested on: horseweed (Erigeron canadensis); experiment: as above; conditions: Postemergence, 1000 g ai/ha, 0 to 100 scale, 10 days
From the text: as §1, §2

kochia (Bassia scoparia) [11] = experiment: as above; conditions: Postemergence, 1000 g ai/ha, 0 to 100 scale, 10 days
From the text: as §1, §2

[12] = tested on: barnyardgrass (Echinochloa crusgalli); experiment: Test B flooded paddy test, visual plant response rating 0-100; conditions: 250 g ai/ha, Flood, applied to paddy water, evaluated after 13 days
Method: (§3) Plant species in the flooded paddy test selected from barnyardgrass (Echinochloa crusgalli), ducksalad (Heteranthera limosa), rice (Oryza sativa), and sedge, umbrella (small-flower umbrella sedge, Cyperus difformis) were grown to the 2-leaf stage for testing. At time of treatment, test pots were flooded to 3 cm above the soil surface, treated by application of test compounds directly to the paddy water, and then maintained at that water depth for the duration of the test. Treated plants and controls were maintained in a greenhouse for 13 days, after which time all species were compared to controls and visually evaluated. […] A dash (-) response means no test result.

[13] = tested on: ducksalad (Heteranthera limosa); experiment: as above; conditions: 250 g ai/ha, Flood, applied to paddy water, evaluated after 13 days
Method: as §3

rice (Oryza sativa) = experiment: as above; conditions: 250 g ai/ha, Flood, applied to paddy water, evaluated after 13 days
Method: as §3

[14] = tested on: sedge, umbrella (small-flower umbrella sedge, Cyperus difformis); experiment: as above; conditions: 250 g ai/ha, Flood, applied to paddy water, evaluated after 13 days
Method: as §3

| SMILES | Barnyardgrass plant response rating (0 to 100 scale) [1] | Foxtail, Green plant response rating (0 to 100 scale) [2] | Kochia plant response rating (0 to 100 scale) (kochia (Bassia scoparia) [3]) | Amaranth, Palmer / Pigweed, Palmer plant response rating (0 to 100 scale) [4] | Ryegrass, Italian plant response rating (0 to 100 scale) [5] | Barnyardgrass plant response rating [6] | Blackgrass plant response rating [7] | Galium plant response rating [8] | Foxtail, Green plant response rating [9] | Horseweed plant response rating [10] | Kochia plant response rating (kochia (Bassia scoparia) [11]) | Plant response rating, Barnyardgrass (0 to 100 scale, 0 is no effect and 100 is complete control) [12] | Plant response rating, Ducksalad (0 to 100 scale, 0 is no effect and 100 is complete control) [13] | Plant response rating, Rice (0 to 100 scale, 0 is no effect and 100 is complete control) (rice (Oryza sativa)) | Plant response rating, Sedge, Umbrella (0 to 100 scale, 0 is no effect and 100 is complete control) [14] |
| --- | --- | --- | --- | --- | --- | --- | --- | --- | --- | --- | --- | --- | --- | --- | --- |
| COC(=O)C1C=CC(NC(=O)C2(C)CN(c3cc(F)cc(F)c3)C(=O)N2)C1 (stereo not shown) [Compound 180] | 100 | 100 | 100 | 100 | 100 | 100 | 90 | 90 | 90 | 90 | 80 |  |  |  |  |
| COC(=O)C1CC(NC(=O)C2(C(F)(F)F)CN(c3cc(F)cc(F)c3)C(=O)O2)C1 (stereo not shown) [Compound 196] |  |  |  |  |  |  |  |  |  |  |  | 95 | 50 | 85 | 95 |
| CC1(C(=O)NC2CC=C(C(=O)OCC3CC3)C2)CN(c2cc(Cl)cc(Cl)c2)C(=O)O1 (stereo not shown) [Compound 198] |  |  |  |  |  |  |  |  |  |  |  | 90 | 60 | 85 | 75 |
